Data taken from PubChem BioAssay (NCI).
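96-well plates; 48 h exposure; 5 concentrations. Endpoints by linear interpolation between flanking doses. Not reached: highest tested concentration assigned. The concentration for 50% growth inhibition is given as GI50. The concentration for full growth arrest is given as TGI.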

Tests used:
Assay in all cases: NCI anticancer screen, dose series, 48 h
OVCAR-8 ovarian = system: OVCAR-8 ovarian
OVCAR-5 ovarian = system: OVCAR-5 ovarian
UACC-62 melanoma = system: UACC-62 melanoma
SK-MEL-5 melanoma = system: SK-MEL-5 melanoma
NCI/ADR-RES ovarian = system: NCI/ADR-RES ovarian
MCF7 breast = system: MCF7 breast
SR leukemia = system: SR leukemia
SK-MEL-28 melanoma = system: SK-MEL-28 melanoma
A549 NSCLC = system: A549 NSCLC
NCI-H226 lung = system: NCI-H226 lung
UACC-257 melanoma = system: UACC-257 melanoma
PC-3 prostate = system: PC-3 prostate
NCI-H460 lung = system: NCI-H460 lung
RPMI-8226 leukemia = system: RPMI-8226 leukemia
SNB-19 CNS = system: SNB-19 CNS
HL-60(TB) leukemia = system: HL-60(TB) leukemia
SF-295 CNS = system: SF-295 CNS
HCT-15 colon = system: HCT-15 colon
786-0 renal = system: 786-0 renal
CAKI-1 renal = system: CAKI-1 renal
HT29 colon = system: HT29 colon
HOP-62 NSCLC = system: HOP-62 NSCLC
MDA-MB-231 breast = system: MDA-MB-231 breast
OVCAR-4 ovarian = system: OVCAR-4 ovarian
EKVX NSCLC = system: EKVX NSCLC
KM12 colon = system: KM12 colon
MDA-MB-435 = system: MDA-MB-435
T-47D breast = system: T-47D breast
UO-31 renal = system: UO-31 renal
K-562 leukemia = system: K-562 leukemia
HOP-92 NSCLC = system: HOP-92 NSCLC
COLO 205 colon = system: COLO 205 colon
LOX IMVI melanoma = system: LOX IMVI melanoma
SK-OV-3 ovarian = system: SK-OV-3 ovarian
OVCAR-3 ovarian = system: OVCAR-3 ovarian
CCRF-CEM leukemia = system: CCRF-CEM leukemia
SK-MEL-2 melanoma = system: SK-MEL-2 melanoma
MALME-3M melanoma = system: MALME-3M melanoma
HCC-2998 colon = system: HCC-2998 colon
MOLT-4 leukemia = system: MOLT-4 leukemia
SNB-75 CNS = system: SNB-75 CNS
BT-549 breast = system: BT-549 breast
HS 578T breast = system: HS 578T breast
TK-10 renal = system: TK-10 renal
SF-539 CNS = system: SF-539 CNS
SN12C renal = system: SN12C renal
SW-620 colon = system: SW-620 colon
U251 CNS = system: U251 CNS
A498 renal = system: A498 renal
ACHN renal = system: ACHN renal
HCT-116 colon = system: HCT-116 colon
DU-145 prostate = system: DU-145 prostate
SF-268 CNS = system: SF-268 CNS
NCI-H23 lung = system: NCI-H23 lung
M14 melanoma = system: M14 melanoma
RXF 393 renal = system: RXF 393 renal

CCN(CC)CCN1CC(O)=C(c2nc(-c3ccc(Cl)cc3)cs2)C1=N
GI50 (OVCAR-8 ovarian): 5.61 µM
TGI (OVCAR-8 ovarian): > 100 µM
GI50 (OVCAR-5 ovarian): 6.38 µM
TGI (OVCAR-5 ovarian): 31.3 µM
GI50 (UACC-62 melanoma): 1.87 µM
TGI (UACC-62 melanoma): 3.53 µM
GI50 (SK-MEL-5 melanoma): 1.63 µM
TGI (SK-MEL-5 melanoma): 3.02 µM
GI50 (NCI/ADR-RES ovarian): 9.12 µM
TGI (NCI/ADR-RES ovarian): > 100 µM
GI50 (MCF7 breast): 1.42 µM
TGI (MCF7 breast): 3.36 µM
GI50 (SR leukemia): 1.43 µM
TGI (SR leukemia): 3.7 µM
GI50 (SK-MEL-28 melanoma): 1.86 µM
TGI (SK-MEL-28 melanoma): 3.49 µM
GI50 (A549 NSCLC): 3.62 µM
TGI (A549 NSCLC): 17.8 µM
GI50 (NCI-H226 lung): 1.85 µM
TGI (NCI-H226 lung): 3.88 µM
GI50 (UACC-257 melanoma): 1.82 µM
TGI (UACC-257 melanoma): 3.51 µM
GI50 (PC-3 prostate): 6.8 µM
TGI (PC-3 prostate): > 100 µM
GI50 (NCI-H460 lung): 2.04 µM
TGI (NCI-H460 lung): 4.29 µM
GI50 (RPMI-8226 leukemia): 2 µM
TGI (RPMI-8226 leukemia): 5.09 µM
GI50 (SNB-19 CNS): 2.1 µM
TGI (SNB-19 CNS): 4.5 µM
GI50 (HL-60(TB) leukemia): 1.5 µM
TGI (HL-60(TB) leukemia): 3.5 µM
GI50 (SF-295 CNS): 1.8 µM
TGI (SF-295 CNS): 3.49 µM
GI50 (HCT-15 colon): 1.58 µM
TGI (HCT-15 colon): 3.42 µM
GI50 (786-0 renal): 1.62 µM
TGI (786-0 renal): 3.19 µM
GI50 (CAKI-1 renal): 1.98 µM
TGI (CAKI-1 renal): 6.72 µM
GI50 (HT29 colon): 2 µM
TGI (HT29 colon): 6.27 µM
GI50 (HOP-62 NSCLC): 1.83 µM
TGI (HOP-62 NSCLC): 3.99 µM
GI50 (MDA-MB-231 breast): 1.97 µM
TGI (MDA-MB-231 breast): 4.1 µM
GI50 (OVCAR-4 ovarian): 18.3 µM
TGI (OVCAR-4 ovarian): > 100 µM
GI50 (EKVX NSCLC): 9.36 µM
TGI (EKVX NSCLC): 33.9 µM
GI50 (KM12 colon): 2.72 µM
TGI (KM12 colon): 8.09 µM
GI50 (MDA-MB-435): 1.72 µM
TGI (MDA-MB-435): 3.25 µM
GI50 (T-47D breast): 2.19 µM
TGI (T-47D breast): 5.11 µM
GI50 (UO-31 renal): 3.83 µM
TGI (UO-31 renal): 20.2 µM
GI50 (K-562 leukemia): 1.42 µM
TGI (K-562 leukemia): 3.04 µM
GI50 (HOP-92 NSCLC): 1.49 µM
TGI (HOP-92 NSCLC): 8.65 µM
GI50 (COLO 205 colon): 2.04 µM
TGI (COLO 205 colon): 4 µM
GI50 (LOX IMVI melanoma): 1.83 µM
TGI (LOX IMVI melanoma): 3.43 µM
GI50 (SK-OV-3 ovarian): 4.76 µM
TGI (SK-OV-3 ovarian): 25.2 µM
GI50 (OVCAR-3 ovarian): 4.06 µM
TGI (OVCAR-3 ovarian): 20.4 µM
GI50 (CCRF-CEM leukemia): 2 µM
TGI (CCRF-CEM leukemia): 4.99 µM
GI50 (SK-MEL-2 melanoma): 16.9 µM
TGI (SK-MEL-2 melanoma): > 100 µM
GI50 (MALME-3M melanoma): 1.69 µM
TGI (MALME-3M melanoma): 3.22 µM
GI50 (HCC-2998 colon): 1.95 µM
TGI (HCC-2998 colon): 3.91 µM
GI50 (MOLT-4 leukemia): 1.87 µM
TGI (MOLT-4 leukemia): 4.42 µM
GI50 (SNB-75 CNS): 1.6 µM
TGI (SNB-75 CNS): 3.4 µM
GI50 (BT-549 breast): 5.17 µM
TGI (BT-549 breast): 21.2 µM
GI50 (HS 578T breast): 1.5 µM
TGI (HS 578T breast): 3.59 µM
GI50 (TK-10 renal): 2.86 µM
TGI (TK-10 renal): 5.65 µM
GI50 (SF-539 CNS): 1.55 µM
TGI (SF-539 CNS): 3.11 µM
GI50 (SN12C renal): 5.25 µM
TGI (SN12C renal): > 100 µM
GI50 (SW-620 colon): 1.91 µM
TGI (SW-620 colon): 3.8 µM
GI50 (U251 CNS): 1.68 µM
TGI (U251 CNS): 3.17 µM
GI50 (A498 renal): 1.72 µM
TGI (A498 renal): 3.47 µM
GI50 (ACHN renal): 3.14 µM
TGI (ACHN renal): 12 µM
GI50 (HCT-116 colon): 1.78 µM
TGI (HCT-116 colon): 4.16 µM
GI50 (DU-145 prostate): 7.26 µM
TGI (DU-145 prostate): 62.4 µM
GI50 (SF-268 CNS): 1.87 µM
TGI (SF-268 CNS): 3.93 µM
GI50 (NCI-H23 lung): 7.39 µM
TGI (NCI-H23 lung): 49.9 µM

Cc1ccc(/C(=C/C=C(C#N)C#N)Sc2ccc(Cl)cc2)cc1
GI50 (OVCAR-8 ovarian): 11.4 µM
TGI (OVCAR-8 ovarian): 32.4 µM
GI50 (OVCAR-5 ovarian): 11.4 µM
TGI (OVCAR-5 ovarian): 25.5 µM
GI50 (UACC-62 melanoma): 5.3 µM
TGI (UACC-62 melanoma): 23.1 µM
GI50 (SK-MEL-5 melanoma): 12 µM
TGI (SK-MEL-5 melanoma): 25.9 µM
GI50 (NCI/ADR-RES ovarian): 5.99 µM
TGI (NCI/ADR-RES ovarian): 19.9 µM
GI50 (MCF7 breast): 5.24 µM
TGI (MCF7 breast): > 100 µM
GI50 (SR leukemia): 2.32 µM
TGI (SR leukemia): 6.14 µM
GI50 (SK-MEL-28 melanoma): 10.6 µM
TGI (SK-MEL-28 melanoma): 46.8 µM
GI50 (A549 NSCLC): 12.4 µM
TGI (A549 NSCLC): 28 µM
GI50 (UACC-257 melanoma): 9.04 µM
TGI (UACC-257 melanoma): 22 µM
GI50 (M14 melanoma): 5.44 µM
TGI (M14 melanoma): 17.7 µM
GI50 (PC-3 prostate): 3.65 µM
TGI (PC-3 prostate): 14.7 µM
GI50 (NCI-H460 lung): 9.24 µM
TGI (NCI-H460 lung): 29.7 µM
GI50 (RPMI-8226 leukemia): 2.34 µM
TGI (RPMI-8226 leukemia): 7.96 µM
GI50 (SNB-19 CNS): 11 µM
TGI (SNB-19 CNS): 25.3 µM
GI50 (SF-295 CNS): 4.07 µM
TGI (SF-295 CNS): 16.8 µM
GI50 (HCT-15 colon): 4.12 µM
TGI (HCT-15 colon): 23.1 µM
GI50 (786-0 renal): 1.9 µM
TGI (786-0 renal): 4.57 µM
GI50 (CAKI-1 renal): 2.03 µM
TGI (CAKI-1 renal): 5.3 µM
GI50 (HOP-62 NSCLC): 6.4 µM
TGI (HOP-62 NSCLC): 15.6 µM
GI50 (MDA-MB-231 breast): 10.5 µM
TGI (MDA-MB-231 breast): 28.4 µM
GI50 (OVCAR-4 ovarian): 11.3 µM
TGI (OVCAR-4 ovarian): > 100 µM
GI50 (EKVX NSCLC): 22.3 µM
TGI (EKVX NSCLC): 49.4 µM
GI50 (KM12 colon): 5.5 µM
TGI (KM12 colon): 26.7 µM
GI50 (MDA-MB-435): 3.02 µM
TGI (MDA-MB-435): 10.7 µM
GI50 (T-47D breast): 18.8 µM
TGI (T-47D breast): 56.5 µM
GI50 (K-562 leukemia): 3.34 µM
TGI (K-562 leukemia): 18.4 µM
GI50 (HOP-92 NSCLC): 15 µM
TGI (HOP-92 NSCLC): 56.6 µM
GI50 (COLO 205 colon): 7.58 µM
TGI (COLO 205 colon): 30.4 µM
GI50 (LOX IMVI melanoma): 2.57 µM
TGI (LOX IMVI melanoma): 5.98 µM
GI50 (SK-OV-3 ovarian): 16.4 µM
TGI (SK-OV-3 ovarian): 36.1 µM
GI50 (OVCAR-3 ovarian): 2.31 µM
TGI (OVCAR-3 ovarian): 9.34 µM
GI50 (CCRF-CEM leukemia): 2.41 µM
TGI (CCRF-CEM leukemia): 17.4 µM
GI50 (MALME-3M melanoma): 12.2 µM
TGI (MALME-3M melanoma): 30.5 µM
GI50 (HCC-2998 colon): 18 µM
TGI (HCC-2998 colon): 31.9 µM
GI50 (MOLT-4 leukemia): 1.85 µM
TGI (MOLT-4 leukemia): 14.3 µM
GI50 (RXF 393 renal): 11.9 µM
TGI (RXF 393 renal): 39.2 µM
GI50 (BT-549 breast): 3.37 µM
TGI (BT-549 breast): 9.16 µM
GI50 (HS 578T breast): 14.3 µM
TGI (HS 578T breast): 58.4 µM
GI50 (TK-10 renal): 2.12 µM
TGI (TK-10 renal): 7.31 µM
GI50 (SF-539 CNS): 2.66 µM
TGI (SF-539 CNS): 5.45 µM
GI50 (SN12C renal): 4.32 µM
TGI (SN12C renal): 18 µM
GI50 (SW-620 colon): 3.53 µM
TGI (SW-620 colon): 10.7 µM
GI50 (U251 CNS): 3.65 µM
TGI (U251 CNS): 14.8 µM
GI50 (A498 renal): 19.4 µM
TGI (A498 renal): 34.8 µM
GI50 (ACHN renal): 4.62 µM
TGI (ACHN renal): 36.9 µM
GI50 (HCT-116 colon): 2.24 µM
TGI (HCT-116 colon): 3.97 µM
GI50 (DU-145 prostate): 3.95 µM
TGI (DU-145 prostate): 11.3 µM
GI50 (SF-268 CNS): 9.8 µM
TGI (SF-268 CNS): 35.7 µM
GI50 (NCI-H23 lung): 9.54 µM
TGI (NCI-H23 lung): 23.4 µM
